Assay results published in US20140249156A1, “Treatment Of Blood Lipid Abnormalities And Other Conditions” (GlaxoSmithKline LLC, priority 2011, published 2014).

Tests used:
[1] = system: male Crl:CD(SD) rats; assay: Appearance of radiolabeled cholesterol (chylomicrons) in circulation after labeled oral fat challenge with triton block; assay type: in vivo, rat; conditions: vs vehicle; for appearance of 3H cholesterol (CPM) in the serum: 3H cholesterol tracer
From the text: A rat model (male Crl:CD(SD) rats) was used for the evaluation of a diverse set of GPR119 agonists. The objective of the studies was to determine if administration of a single dose of an agonist affects the appearance of chylomicrons containing either ^3H- or ^14C-cholesterol in circulation of fasted Crl:CD(SD) rats.
In order to track chylomicron appearance in circulation, radiolabeled cholesterol (with or without radiolabeled retinol) was co-administered with olive oil by oral gavage. Both tracers label the chylomicron core as the cholesterol administered is esterified in the enterocyte, packaged into the chylomicron, and released into the lymphatic system for transport to the systemic circulation. In order to assess appearance and accumulation of the newly formed chylomicrons in circulation, triton was administered by intravenous injection to block the clearance of these particles from circulation.
The rats had been previously instrumented with an implanted jugular catheter to facilitate obtaining multiple blood samples without stress to the animal. Rats were fasted overnight prior to labeled oral fat challenge. All compounds were dosed one hour prior to the challenge test. Treatment groups were randomized by body weight.
All compounds were administered at 5 mL/kg by the oral route as suspensions in hydroxypropylmethylcellulose (0.5%) which contained 0.1% Tween 80. Triton (250 mg/kg) was administered by intravenous injection immediately prior to an oral gavage of the tracer mixed with olive oil. Total volume of olive oil administered per rat was 2 mL, which contained (per 2 mL olive oil) either:
5-10 uCi ^14C-cholesterol (alone or in combination with 80 uCi ^3H-retinol)
5-20 uCi ^3H-cholesterol.
Blood samples were taken at the following time points: 0.25, 0.5, 0.75, 1, 2, 3, 4, 5 and 6 hours post olive oil gavage. Samples were spun at 8,000×g for 8 minutes at room temperature and 100 uL aliquots of serum counted for ^3H or ^14C.

[2] = system: humans; conditions: cited from earlier work
[3] = single oral dose 30 mg/kg one hour before olive oil containing 14C cholesterol
[4] = previously discovered, patients

SMILES: CC(C)c1noc(N2CCC(COc3ccc(-c4ccc(S(C)(=O)=O)cc4)nc3)CC2)n1 [Compound A, 5-[({1-[3-(1-methylethyl)-1,2,4-oxadiazol-5-yl]-4-piperidinyl}methyl)oxy]-2-[4-(methylsulfonyl)phenyl]pyridine]
- appearance of 3H cholesterol (CPM) in the serum ([1]; single oral dose 3 mg/kg): decreased
- appearance of 14C labeled chylomicrons in circulation ([1]; single oral dose 3 mg/kg, olive oil containing 14C cholesterol): significantly reduced
- appearance of 3H cholesterol (CPM) in the serum ([1]; single oral dose 10 mg/kg): decreased
- appearance of 14C labeled chylomicrons in circulation ([1]; single oral dose 10 mg/kg, olive oil containing 14C cholesterol): significantly reduced
- appearance of 14C labeled chylomicrons in circulation [1, 3]: significantly reduced
- fasting ApoB/B100 ([2]; humans): reducing
- fasting ApoB/B100:ApoA1 ratio ([2]; humans): reducing
- fasting ApoE ([2]; humans): reducing
- fasting HDL cholesterol ([2]; humans): increasing
- fasting LDL cholesterol ([2]; humans): reduced
- fasting LDL cholesterol:HDL cholesterol ratio ([2]; humans): reducing
- fasting non-HDL cholesterol ([2]; humans): reducing
- fasting plasma alanine aminotransferase ([2]; humans): reducing
- fasting plasma uric acid ([2]; humans): reducing
- fasting total cholesterol ([2]; humans): reducing
- fasting total cholesterol:HDL cholesterol ratio ([2]; humans): reducing
- fasting triglycerides ([2]; humans): reducing
- prandial triglycerides ([2]; humans): reducing
- rise in serum triglycerides that occurs following meals ([2]; patients treated with Compound A): significantly blunted
- HDL cholesterol [2, 4]: raises
- LDL cholesterol [2, 4]: lowers
- total cholesterol [2, 4]: lowers

SMILES: Cc1ncccc1Oc1ncnc(OC2CCN(C(=O)OC(C)C)CC2)c1C.Cl [Compound G, 1-methylethyl 4-({5-methyl-6-[(2-methyl-3-pyridinyl)oxy]-4-pyrimidinyl}oxy)-1-piperidinecarboxylate hydrochloride]
- appearance of 3H cholesterol (CPM) in the serum ([1]; single oral dose 30 mg/kg): significant reduced

SMILES: C[C@@H](OC1CCN(C(=O)OC(C)(C)C)CC1)c1nc(-c2ccc(S(C)(=O)=O)c(F)c2)no1 [Compound J, 1,1-dimethylethyl 4-[((1R)-1-{3-[3-fluoro-4-(methylsulfonyl)phenyl]-1,2,4-oxadiazol-5-yl}ethyl)oxy]-1-piperidinecarboxylate]
- appearance of 3H cholesterol (CPM) in the serum ([1]; single oral dose 30 mg/kg): significant reduced

SMILES: CC(C)n1nnc(N2CCC([C@H](C)Oc3cnc(-c4ccc(S(C)(=O)=O)cc4)cn3)CC2)n1 [Compound I, 2-[((1S)-1-{1-[2-(1-methylethyl)-2H-tetrazol-5-yl]-4-piperidinyl}ethyl)oxy]-5-[4-(methylsulfonyl)phenyl]pyrazine]
- appearance of 3H cholesterol (CPM) in the serum ([1]; single oral dose 30 mg/kg): significant reduced

SMILES: Cc1cc(S(C)(=O)=O)ccc1N1CCc2c(OC3CCN(C(=O)OC(C)C)CC3)ncnc21 [Compound H, 1-methylethyl 4-({7-[2-methyl-4-(methylsulfonyl)phenyl]-6,7-dihydro-5H-pyrrolo[2,3-d]pyrimidin-4-yl}oxy)-1-piperidinecarboxylate]
- appearance of 3H cholesterol (CPM) in the serum ([1]; single oral dose 30 mg/kg): significant reduced

SMILES: CC(C)c1noc(N2CCC([C@H](C)Oc3cnc(-c4ccc(S(C)(=O)=O)cc4)cn3)CC2)n1 [Compound B, 2-[((1S)-1-{1-[3-(1-methylethyl)-1,2,4-oxadiazol-5-yl]-4-piperidinyl}ethyl)oxy]-5-[4-(methylsulfonyl)phenyl]pyrazine]
- appearance of 14C labeled chylomicrons in circulation [1, 3]: significantly reduced
- appearance of 3H cholesterol (CPM) in the serum ([1]; single oral dose 30 mg/kg): decreased
